Source: patent US6437128B1, “Cribrostatins 3-5” (Arizona Board of Regents, priority 2001, dated 2002)
In brackets after ≈: the same amount, converted by molar mass. Like-named read-outs stand apart in the source and are kept apart here.

Tests used:
[1] = tested on: Penicillin-resistant N. gonorrhoeae (clinical isolate); test: Antimicrobial disk diffusion; format: cell-based
[2] = tested on: Streptococcus pneumoniae (ATCC 6303); test: Antimicrobial disk diffusion; format: cell-based
[3] = tested on: Bacillus subtilis (Presque Isle 620); test: Antimicrobial disk diffusion; format: cell-based
[4] = tested on: Cryptococcus neoformans (ATCC 90112); test: Antimicrobial disk diffusion; format: cell-based
[5] = tested on: Stenotrophomonas maltophilia (ATCC 13637); test: Antimicrobial disk diffusion; format: cell-based
[6] = tested on: Enterobacter cloacae (ATCC 13047); test: Antimicrobial disk diffusion; format: cell-based
[7] = tested on: Micrococcus luteus (Presque Isle 456); test: Antimicrobial disk diffusion; format: cell-based
[8] = tested on: Escherichia coli (ATCC 25922); test: Antimicrobial disk diffusion; format: cell-based
[9] = tested on: Enterococcus faecalis (ATCC 29212); test: Antimicrobial disk diffusion; format: cell-based
[10] = tested on: Neisseria gonorrhoeae (ATCC 49226); test: Antimicrobial disk diffusion; format: cell-based
[11] = tested on: Staphylococcus aureus (ATCC 29213); test: Antimicrobial disk diffusion; format: cell-based
[12] = tested on: Candida albicans (ATCC 90028); test: Antimicrobial disk diffusion; format: cell-based
[13] = tested on: P388 lymphocytic leukemia; test: in vitro murine P388 lymphocytic leukemia (PS) cell growth inhibition; format: cell-based; settings: for GI50: Mouse Leukemia P388; for PS ED50 (P388 ED50): in vitro P388 lymphocytic leukemia
Source text: The fractions obtained from the 1988-89 recollection of Cribrochalina so. (See: Pettit, G. R.; Collins, J. C.; Herald, D. L.; Doubek, D. L.; Boyd, M. R.; Schmidt, J. M.; Hooper, J. N. A.; Tackett, L. P. Can. J. Cheim. 1992, 70, 1170-1175) beginning with the 195 g dichloromethane partition fraction were re-examined guided by bioassay results using the murine P388 lymphocytic leukemia.
(§1) Individual cell line response values are provided in the Experimental.

SF-295 (CNS) = test: ASU-CRI minipanel of human cancer cell lines; format: cell-based; settings: CNS SF-295
Source text: as §1

KM20L2 (Colon) = test: ASU-CRI minipanel of human cancer cell lines; format: cell-based
Source text: as §1

BXPC-3 (Pancreas-a) = test: ASU-CRI minipanel of human cancer cell lines; format: cell-based; settings: Pancreas-a BXPC-3
Source text: as §1

DU-145 (Prostate) = test: ASU-CRI minipanel of human cancer cell lines; format: cell-based; settings: Prostate DU-145
Source text: as §1

NCI-H460 (Lung-NSC) = test: ASU-CRI minipanel of human cancer cell lines; format: cell-based
Source text: as §1

OVCAR-3 (Ovarian) = test: ASU-CRI minipanel of human cancer cell lines; format: cell-based; settings: Ovarian OVCAR-3
Source text: as §1

SF-295 = test: NCI 60-cell screen; format: cell-based, human; settings: averaged, quadruplicate, upper limit 10^−5 M
HOP-62 = test: NCI 60-cell screen; format: cell-based, human; settings: averaged, quadruplicate, upper limit 10^−5 M
K-562 = test: NCI 60-cell screen; format: cell-based, human; settings: averaged, quadruplicate, upper limit 10^−5 M
T-47D = test: NCI 60-cell screen; format: cell-based, human; settings: averaged, quadruplicate, upper limit 10^−5 M
SR = test: NCI 60-cell screen; format: cell-based, human; settings: averaged, quadruplicate, upper limit 10^−5 M
HL-60 (TB) = test: NCI 60-cell screen; format: cell-based, human; settings: averaged, quadruplicate, upper limit 10^−5 M
LOX IMVI = test: NCI 60-cell screen; format: cell-based, human; settings: averaged, quadruplicate, upper limit 10^−5 M
SF-539 = test: NCI 60-cell screen; format: cell-based, human; settings: averaged, quadruplicate, upper limit 10^−5 M
NCI-H460 = test: NCI 60-cell screen; format: cell-based, human; settings: averaged, quadruplicate, upper limit 10^−5 M
PC-3 = test: NCI 60-cell screen; format: cell-based, human; settings: averaged, quadruplicate, upper limit 10^−5 M
MOLT-4 = test: NCI 60-cell screen; format: cell-based, human; settings: averaged, quadruplicate, upper limit 10^−5 M
MDA-N = test: NCI 60-cell screen; format: cell-based, human; settings: averaged, quadruplicate, upper limit 10^−5 M
IGROV1 = test: NCI 60-cell screen; format: cell-based, human; settings: averaged, quadruplicate, upper limit 10^−5 M
OVCAR4 = test: NCI 60-cell screen; format: cell-based, human; settings: averaged, quadruplicate, upper limit 10^−5 M
NCI-H522 = test: NCI 60-cell screen; format: cell-based, human; settings: averaged, quadruplicate, upper limit 10^−5 M
HS578T = test: NCI 60-cell screen; format: cell-based, human; settings: averaged, quadruplicate, upper limit 10^−5 M
MDA-MB-435 = test: NCI 60-cell screen; format: cell-based, human; settings: averaged, quadruplicate, upper limit 10^−5 M
ACHN = test: NCI 60-cell screen; format: cell-based, human; settings: averaged, quadruplicate, upper limit 10^−5 M
COLO 205 = test: NCI 60-cell screen; format: cell-based, human; settings: averaged, quadruplicate, upper limit 10^−5 M
CCRF-CEM = test: NCI 60-cell screen; format: cell-based, human; settings: averaged, quadruplicate, upper limit 10^−5 M
HOP-92 = test: NCI 60-cell screen; format: cell-based, human; settings: averaged, quadruplicate, upper limit 10^−5 M
SN12C = test: NCI 60-cell screen; format: cell-based, human; settings: averaged, quadruplicate, upper limit 10^−5 M
RXF-393 = test: NCI 60-cell screen; format: cell-based, human; settings: averaged, quadruplicate, upper limit 10^−5 M
786-O = test: NCI 60-cell screen; format: cell-based, human; settings: averaged, quadruplicate, upper limit 10^−5 M
MALME-3M = test: NCI 60-cell screen; format: cell-based, human; settings: averaged, quadruplicate, upper limit 10^−5 M
OVCAR-8 = test: NCI 60-cell screen; format: cell-based, human; settings: averaged, quadruplicate, upper limit 10^−5 M
OVCAR-3 = test: NCI 60-cell screen; format: cell-based, human; settings: averaged, quadruplicate, upper limit 10^−5 M
NCI-H226 = test: NCI 60-cell screen; format: cell-based, human; settings: averaged, quadruplicate, upper limit 10^−5 M
SF-268 = test: NCI 60-cell screen; format: cell-based, human; settings: averaged, quadruplicate, upper limit 10^−5 M
RPMI-8226 = test: NCI 60-cell screen; format: cell-based, human; settings: averaged, quadruplicate, upper limit 10^−5 M
[14] = tested on: NCI 60-cell in vitro panel; test: NCI 60-cell in vitro panel, mean panel; format: cell-based, human; settings: average ±SEM from the 40 cell lines that yielded GI50 values for both 4a and 5
Source text: as §1

U251 = test: NCI 60-cell screen; format: cell-based, human; settings: averaged, quadruplicate, upper limit 10^−5 M
MCF7 = test: NCI 60-cell screen; format: cell-based, human; settings: averaged, quadruplicate, upper limit 10^−5 M
SNB-75 = test: NCI 60-cell screen; format: cell-based, human; settings: averaged, quadruplicate, upper limit 10^−5 M
SW-620 = test: NCI 60-cell screen; format: cell-based, human; settings: averaged, quadruplicate, upper limit 10^−5 M
MCF7/ADR-RES = test: NCI 60-cell screen; format: cell-based, human; settings: averaged, quadruplicate, upper limit 10^−5 M
SK-MEL-5 = test: NCI 60-cell screen; format: cell-based, human; settings: averaged, quadruplicate, upper limit 10^−5 M
KM 12 = test: NCI 60-cell screen; format: cell-based, human; settings: averaged, quadruplicate, upper limit 10^−5 M
UACC-62 = test: NCI 60-cell screen; format: cell-based, human; settings: averaged, quadruplicate, upper limit 10^−5 M
A549/ATCC = test: NCI 60-cell screen; format: cell-based, human; settings: averaged, quadruplicate, upper limit 10^−5 M
MDA-MB-231/ATCC = test: NCI 60-cell screen; format: cell-based, human; settings: averaged, quadruplicate, upper limit 10^−5 M

CC1=C(N)C(=O)c2c(ccnc2C)C1=O [Cribrostatin 1, cribrostatin 1, reference compound]
Minimum inhibitory concentration [1]: 0.39-0.78 μg/disk | Minimum inhibitory concentration [2]: * (No inhibition at 100 μg/disk) | Minimum inhibitory concentration [3]: * (No inhibition at 100 μg/disk) | Minimum inhibitory concentration [4]: * (No inhibition at 100 μg/disk) | Minimum inhibitory concentration [5]: * (No inhibition at 100 μg/disk) | Minimum inhibitory concentration [6]: * (No inhibition at 100 μg/disk) | Minimum inhibitory concentration [7]: * (No inhibition at 100 μg/disk) | Minimum inhibitory concentration [8]: * (No inhibition at 100 μg/disk) | Minimum inhibitory concentration [9]: * (No inhibition at 100 μg/disk) | Minimum inhibitory concentration [10]: 0.39-0.78 μg/disk | Minimum inhibitory concentration [11]: * (No inhibition at 100 μg/disk) | Minimum inhibitory concentration [12]: * (No inhibition at 100 μg/disk)

C/C=C(/C)C(=O)OC[C@H]1C2=C(C=C3[C@H]4c5c(O)c(OC)c(C)c(O)c5C(=O)[C@@H](C(=O)N31)N4C)C(=O)C(C)=C(OC)C2=O [Cribrostatin 5, cribrostatin 5]
Minimum inhibitory concentration ([2]; listed as 4b): * (No inhibition at 100 μg/disk) | Minimum inhibitory concentration [3]: * (No inhibition at 100 μg/disk) | Minimum inhibitory concentration ([7]; listed as 4b): 50-100 μg/disk | GI50 [13]: 0.045 µg/mL (≈ 0.0778 µM) | PS ED50 (P388 ED50) ([13]; listed as cribrostatin 5): 0.045 µg/mL | GI50 (SF-295 (CNS)): 0.36 µg/mL (≈ 0.622 µM) | GI50 (KM20L2 (Colon)): 0.14 µg/mL (≈ 0.242 µM) | GI50 (BXPC-3 (Pancreas-a)): 0.29 µg/mL (≈ 0.501 µM) | GI50 (DU-145 (Prostate)): 0.30 µg/mL (≈ 0.519 µM) | GI50 (NCI-H460 (Lung-NSC)): 0.22 µg/mL (≈ 0.38 µM) | GI50 (OVCAR-3 (Ovarian)): 0.18 µg/mL (≈ 0.311 µM)

cribrostatin 3
negative log10 GI50 (SF-295): 5.44 | negative log10 GI50 (HOP-62): 5.27 | negative log10 GI50 (K-562): 5.13 | negative log10 GI50 (T-47D): 5.19 | negative log10 GI50 (SR): 5.47 | negative log10 GI50 (HL-60 (TB)): 5.51 | negative log10 GI50 (LOX IMVI): 5.39 | negative log10 GI50 (SF-539): 5.32 | Minimum inhibitory concentration [1]: 0.39-0.78 μg/disk | Minimum inhibitory concentration [2]: * (No inhibition at 100 μg/disk) | negative log10 GI50 (NCI-H460): 5.52 | Minimum inhibitory concentration [3]: * (No inhibition at 100 μg/disk) | Minimum inhibitory concentration [4]: * (No inhibition at 100 μg/disk) | Minimum inhibitory concentration [5]: * (No inhibition at 100 μg/disk) | Minimum inhibitory concentration [6]: * (No inhibition at 100 μg/disk) | negative log10 GI50 (PC-3): 5.70 | negative log10 GI50 (MOLT-4): 5.31 | negative log10 GI50 (MDA-N): 5.72 | negative log10 GI50 (IGROV1): 5.14 | negative log10 GI50 (OVCAR4): 5.28 | negative log10 GI50 (NCI-H522): 5.41 | negative log10 GI50 (HS578T): 5.20 | Minimum inhibitory concentration [7]: * (No inhibition at 100 μg/disk) | Minimum inhibitory concentration [8]: * (No inhibition at 100 μg/disk) | negative log10 GI50 (MDA-MB-435): 5.74 | negative log10 GI50 (ACHN): 5.02 | Minimum inhibitory concentration [9]: * (No inhibition at 100 μg/disk) | Minimum inhibitory concentration [10]: 0.0975-0.195 μg/disk | negative log10 GI50 (COLO 205): 5.23 | negative log10 GI50 (CCRF-CEM): 5.37 | negative log10 GI50 (HOP-92): 5.02 | negative log10 GI50 (SN12C): 5.21 | negative log10 GI50 (RXF-393): 5.31 | negative log10 GI50 (786-O): 5.23 | negative log10 GI50 (MALME-3M): 6.21 | negative log10 GI50 (OVCAR-8): 5.06 | negative log10 GI50 (OVCAR-3): 5.74 | negative log10 GI50 (NCI-H226): 5.15 | GI50 [13]: 2.49 µg/mL | PS ED50 (P388 ED50) [13]: 2.5 µg/mL | Minimum inhibitory concentration [11]: * (No inhibition at 100 μg/disk) | negative log10 GI50 (SF-268): 5.20 | GI50 (SF-295 (CNS)): >1 µg/mL | GI50 (KM20L2 (Colon)): >1 µg/mL | GI50 (BXPC-3 (Pancreas-a)): >1 µg/mL | GI50 (DU-145 (Prostate)): >1 µg/mL | GI50 (NCI-H460 (Lung-NSC)): >1 µg/mL | GI50 (OVCAR-3 (Ovarian)): 0.77 µg/mL | Minimum inhibitory concentration [12]: * (No inhibition at 100 μg/disk) | negative log10 GI50 (RPMI-8226): 5.07 | GI50 [14]: 4.27 µM | negative log10 GI50 (U251): 5.49 | negative log10 GI50 (MCF7): 5.33 | negative log10 GI50 (SNB-75): 5.32 | negative log10 GI50 (SW-620): 5.44 | negative log10 GI50 (MCF7/ADR-RES): 5.34 | negative log10 GI50 (SK-MEL-5): 5.96 | negative log10 GI50 (KM 12): 5.31 | negative log10 GI50 (UACC-62): 5.60 | negative log10 GI50 (A549/ATCC): 5.46 | negative log10 GI50 (MDA-MB-231/ATCC): 5.06
